Read-outs that look alike come from different tables or passages of the source.
Target: T1, GLP-1 Receptor (GLP1R) (Homo sapiens, UniProt P43220)
T1 construct: host or cells: HEK293/GLP1R/CRE-LUC
Assay: GLP-1R agonist cAMP stimulation assay (Method 3)
Type: cell-based
Conditions: HEK293/GLP1R/CRE-LUC cells (HDB), Method 3, 30 min incubation
Method: Method 3: Activation of GLP-1 receptor is known to stimulate cyclic AMP (cAMP) production in cells which indicates primary coupling to the Gαs subunit of the G protein heterotrimeric complex.
To optimize functional activity directed toward Gαs coupling, a HEK293/CRE-Luc cell line developed by HDB stably expressing the GLP-1 Receptor was used, 200× concentration of compound working solutions were prepared (Agilent Technologies Bravo) with 1/2 log serial dilution in 384-well Echo LDV plate (Labcyte, Cat #LP-0200). 50 nL/well 200× concentration of compound working solutions were moved to 384-well white low volume plate (Greiner, Cat #784075) using Labcyte ECHO550. 1×10^5 cells/mL HEK293/GLP1R/CRE-LUC(HD Biosciences) cell suspensions prepared with assay buffer [DPBS containing 0.5 mM IBMX (Sigma, Cat #15879) and 0.1% BSA (GENVIEW, Cat #FA016-100 g)], 10 μL cell suspensions were added to each well of previous generated assay plate which already contains 50 nL compound at 200× concentration using ThermoFisher Multidrop Combi (1000 cells/well). Seal the plate and incubate at 37° C. with 5% CO2 for 30 min.
After incubation the cAMP assay signal was generated using cAMP dynamic 2 Kit (Cisbio). 5 μL cAMP-d2 working solution was added to each well, followed with 5 μL Anti-cAMP antibody-cryptate working solution added to each well using ThermoFisher Multidrop Combi. Incubate at room temperature for 1 hour protected from light. Read the fluorescence at 665 nm and 615 nm with Reader PerkinElmer EnVision.

[1] = read-out: GLP1R cAMP Stimulation DR: EC50 (nM) [Species: Human, Assay Cell Line: HDB]
[2] = read-out: GLP1R cAMP Stimulation DR: pEC50 (M) [Species: Human, Assay Cell Line: HDB] (converted)

T1 sequence (P43220 24-463): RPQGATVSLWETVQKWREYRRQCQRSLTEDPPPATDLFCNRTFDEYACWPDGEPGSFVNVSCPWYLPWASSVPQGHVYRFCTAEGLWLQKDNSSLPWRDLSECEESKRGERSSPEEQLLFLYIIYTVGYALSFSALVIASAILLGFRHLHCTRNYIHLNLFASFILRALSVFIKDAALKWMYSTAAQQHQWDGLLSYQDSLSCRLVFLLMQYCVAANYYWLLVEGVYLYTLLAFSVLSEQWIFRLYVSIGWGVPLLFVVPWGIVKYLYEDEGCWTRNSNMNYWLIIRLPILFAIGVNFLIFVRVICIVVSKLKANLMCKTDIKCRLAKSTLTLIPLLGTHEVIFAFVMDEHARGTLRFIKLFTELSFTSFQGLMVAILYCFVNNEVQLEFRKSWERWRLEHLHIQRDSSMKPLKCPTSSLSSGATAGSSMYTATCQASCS

| Compound | EC50 [1] [nM] | EC50 [2] [nM] |
| --- | --- | --- |
| Cc1cc(-n2nc3c(c2-n2ccn(-c4ccc(P(C)(C)=O)cc4)c2=O)[C@H](C)N(C(=O)c2cc4cc(C5CCOCC5)ccc4n2[C@@]2(c4noc(=O)[nH]4)C[C@@H]2C)CC3)cc(C)c1F [Compound 101a, 3-((1S,2S)-1-(2-((S)-3-(3-(4-(Dimethylphosphoryl)phenyl)-2-oxo-2,3-dihydro-1H-imidazol-1-yl)-2-(4-fluoro-3,5-dimethylphenyl)-4-methyl-4,5,6,7-tetrahydro-2H-pyrazolo[4,3-c]pyridine-5-carbonyl)-5-(tetrahydro-2H-pyran-4-yl)-1H-indol-1-yl)-2-methylcyclopropyl)-1,2,4-oxadiazol-5(4H)-one] | 0.1 to 0.2 | 0.1 to 1 |
| Cc1cc(-n2nc3c(c2-n2ccn(-c4ccc(P(C)(C)=O)nc4)c2=O)[C@H](C)N(C(=O)c2cc4cc(C5CCOCC5)ccc4n2[C@@]2(c4noc(=O)[nH]4)C[C@@H]2C)CC3)cc(C)c1F [Compound 105a, 3-((1S,2S)-1-(2-((S)-3-(3-(6-(dimethylphosphoryl)pyridin-3-yl)-2-oxo-2,3-dihydro-1H-imidazol-1-yl)-2-(4-fluoro-3,5-dimethylphenyl)-4-methyl-4,5,6,7-tetrahydro-2H-pyrazolo[4,3-c]pyridine-5-carbonyl)-5-(tetrahydro-2H-pyran-4-yl)-1H-indol-1-yl)-2-methylcyclopropyl)-1,2,4-oxadiazol-5(4H)-one] | 0.1 to 0.2 | 0.1 to 1 |
| CNc1cc(-n2ccn(-c3c4c(nn3-c3cc(C)c(F)c(C)c3)CCN(C(=O)c3cc5cc(C6CCOCC6)ccc5n3[C@@]3(c5noc(=O)[nH]5)C[C@@H]3C)[C@H]4C)c2=O)ccc1P(C)(C)=O [Compound 106a, 3-((1S,2S)-1-(2-((S)-3-(3-(4-(dimethylphosphoryl)-3-(methylamino)phenyl)-2-oxo-2,3-dihydro-1H-imidazol-1-yl)-2-(4-fluoro-3,5-dimethylphenyl)-4-methyl-4,5,6,7-tetrahydro-2H-pyrazolo[4,3-c]pyridine-5-carbonyl)-5-(tetrahydro-2H-pyran-4-yl)-1H-indol-1-yl)-2-methylcyclopropyl)-1,2,4-oxadiazol-5(4H)-one] | < 0.1 | ≤ 0.1 |
| Cc1cc(-n2nc3c(c2-n2ccn(-c4cccc(P(C)(C)=O)c4O)c2=O)[C@H](C)N(C(=O)c2cc4cc(C5CCOCC5)ccc4n2[C@@]2(c4noc(=O)[nH]4)C[C@@H]2C)CC3)cc(C)c1F [Compound 107a, 3-((1S,2S)-1-(2-((S)-3-(3-(3-(dimethylphosphoryl)-2-hydroxyphenyl)-2-oxo-2,3-dihydro-1H-imidazol-1-yl)-2-(4-fluoro-3,5-dimethylphenyl)-4-methyl-4,5,6,7-tetrahydro-2H-pyrazolo[4,3-c]pyridine-5-carbonyl)-5-(tetrahydro-2H-pyran-4-yl)-1H-indol-1-yl)-2-methylcyclopropyl)-1,2,4-oxadiazol-5(4H)-one] | 0.2 to 0.5 | 0.1 to 1 |
| Cc1cc(-n2nc3c(c2-n2ccn(-c4ccc(P(C)(C)=O)c(F)c4)c2=O)[C@H](C)N(C(=O)c2cc4cc(C5CCOCC5)ccc4n2[C@@]2(c4noc(=O)[nH]4)C[C@@H]2C)CC3)cc(C)c1F [Compound 108a, 3-((1S,2S)-1-(2-((S)-3-(3-(4-(dimethylphosphoryl)-3-fluorophenyl)-2-oxo-2,3-dihydro-1H-imidazol-1-yl)-2-(4-fluoro-3,5-dimethylphenyl)-4-methyl-4,5,6,7-tetrahydro-2H-pyrazolo[4,3-c]pyridine-5-carbonyl)-5-(tetrahydro-2H-pyran-4-yl)-1H-indol-1-yl)-2-methylcyclopropyl)-1,2,4-oxadiazol-5(4H)-one] | 0.2 to 0.5 | 0.1 to 1 |
| Cc1cc(-n2nc3c(c2-n2ccn(-c4cccc(P(C)(C)=O)c4)c2=O)[C@H](C)N(C(=O)c2cc4cc(C5CCOCC5)ccc4n2[C@@]2(c4noc(=O)[nH]4)C[C@@H]2C)CC3)cc(C)c1F [Compound 109a, 3-((1S,2S)-1-(2-((S)-3-(3-(3-(dimethylphosphoryl)phenyl)-2-oxo-2,3-dihydro-1H-imidazol-1-yl)-2-(4-fluoro-3,5-dimethylphenyl)-4-methyl-4,5,6,7-tetrahydro-2H-pyrazolo[4,3-c]pyridine-5-carbonyl)-5-(tetrahydro-2H-pyran-4-yl)-1H-indol-1-yl)-2-methylcyclopropyl)-1,2,4-oxadiazol-5(4H)-one] | 0.1 to 0.2 | 0.1 to 1 |
| Cc1cc(-n2nc3c(c2-n2ccn(-c4cc(P(C)(C)=O)c5[nH]cnc5c4)c2=O)[C@H](C)N(C(=O)c2cc4cc(C5CCOCC5)ccc4n2[C@@]2(c4noc(=O)[nH]4)C[C@@H]2C)CC3)cc(C)c1F [Compound 110a, 3-((1S,2S)-1-(2-((S)-3-(3-(7-(dimethylphosphoryl)-1H-benzo[d]imidazol-5-yl)-2-oxo-2,3-dihydro-1H-imidazol-1-yl)-2-(4-fluoro-3,5-dimethylphenyl)-4-methyl-4,5,6,7-tetrahydro-2H-pyrazolo[4,3-c]pyridine-5-carbonyl)-5-(tetrahydro-2H-pyran-4-yl)-1H-indol-1-yl)-2-methylcyclopropyl)-1,2,4-oxadiazol-5(4H)-one] | 0.5 to 5 | 0.1 to 1 |
| Cc1cc(-n2nc3c(c2-n2ccn(-c4ccc(P(C)(C)=O)c(N)c4)c2=O)[C@H](C)N(C(=O)c2cc4cc(C5CCOCC5)ccc4n2[C@@]2(c4noc(=O)[nH]4)C[C@@H]2C)CC3)cc(C)c1F [Compound 111a, 3-((1S,2S)-1-(2-((S)-3-(3-(3-amino-4-(dimethylphosphoryl)phenyl)-2-oxo-2,3-dihydro-1H-imidazol-1-yl)-2-(4-fluoro-3,5-dimethylphenyl)-4-methyl-4,5,6,7-tetrahydro-2H-pyrazolo[4,3-c]pyridine-5-carbonyl)-5-(tetrahydro-2H-pyran-4-yl)-1H-indol-1-yl)-2-methylcyclopropyl)-1,2,4-oxadiazol-5(4H)-one] | < 0.1 | ≤ 0.1 |
| Cc1cc(-n2nc3c(c2-n2ccn(-c4cc(P(C)(C)=O)c5c(cnn5C)c4)c2=O)[C@H](C)N(C(=O)c2cc4cc(C5CCOCC5)ccc4n2[C@@]2(c4noc(=O)[nH]4)C[C@@H]2C)CC3)cc(C)c1F [Compound 112a, 3-((1S,2S)-1-(2-((S)-3-(3-(7-(dimethylphosphoryl)-1-methyl-1H-indazol-5-yl)-2-oxo-2,3-dihydro-1H-imidazol-1-yl)-2-(4-fluoro-3,5-dimethylphenyl)-4-methyl-4,5,6,7-tetrahydro-2H-pyrazolo[4,3-c]pyridine-5-carbonyl)-5-(tetrahydro-2H-pyran-4-yl)-1H-indol-1-yl)-2-methylcyclopropyl)-1,2,4-oxadiazol-5(4H)-one] | 0.5 to 5 | 0.1 to 1 |
| Cc1cc(-n2nc3c(c2-n2ccn(-c4cccc(P(C)(C)=O)n4)c2=O)[C@H](C)N(C(=O)c2cc4cc(C5CCOCC5)ccc4n2[C@@]2(c4noc(=O)[nH]4)C[C@@H]2C)CC3)cc(C)c1F [Compound 113a, 3-((1S,2S)-1-(2-((S)-3-(3-(6-(dimethylphosphoryl)pyridin-2-yl)-2-oxo-2,3-dihydro-1H-imidazol-1-yl)-2-(4-fluoro-3,5-dimethylphenyl)-4-methyl-4,5,6,7-tetrahydro-2H-pyrazolo[4,3-c]pyridine-5-carbonyl)-5-(tetrahydro-2H-pyran-4-yl)-1H-indol-1-yl)-2-methylcyclopropyl)-1,2,4-oxadiazol-5(4H)-one] | 0.2 to 0.5 | 0.1 to 1 |
| CCP(=O)(CC)c1ccc(-n2ccn(-c3c4c(nn3-c3cc(C)c(F)c(C)c3)CCN(C(=O)c3cc5cc(C6CCOCC6)ccc5n3[C@@]3(c5noc(=O)[nH]5)C[C@@H]3C)[C@H]4C)c2=O)cc1N1CCOCC1 [Compound 114a, 3-((1S,2S)-1-(2-((S)-3-(3-(4-(diethylphosphoryl)-3-morpholinophenyl)-2-oxo-2,3-dihydro-1H-imidazol-1-yl)-2-(4-fluoro-3,5-dimethylphenyl)-4-methyl-4,5,6,7-tetrahydro-2H-pyrazolo[4,3-c]pyridine-5-carbonyl)-5-(tetrahydro-2H-pyran-4-yl)-1H-indol-1-yl)-2-methylcyclopropyl)-1,2,4-oxadiazol-5(4H)-one] | 0.2 to 0.5 | 0.1 to 1 |
| CCP(=O)(CC)c1ccc(-n2ccn(-c3c4c(nn3-c3cc(C)c(F)c(C)c3)CCN(C(=O)c3cc5cc(C6CCOCC6)ccc5n3[C@@]3(c5noc(=O)[nH]5)C[C@@H]3C)[C@H]4C)c2=O)cc1NC(=O)C1CC1 [Compound 115a, N-(2-(diethylphosphoryl)-5-(3-((S)-2-(4-fluoro-3,5-dimethylphenyl)-4-methyl-5-(1-((1S,2S)-2-methyl-1-(5-oxo-4,5-dihydro-1,2,4-oxadiazol-3-yl)cyclopropyl)-5-(tetrahydro-2H-pyran-4-yl)-1H-indole-2-carbonyl)-4,5,6,7-tetrahydro-2H-pyrazolo[4,3-c]pyridin-3-yl)-2-oxo-2,3-dihydro-1H-imidazol-1-yl)phenyl)cyclopropanecarboxamide] | 0.2 to 0.5 | 0.1 to 1 |

Source: patent publication US20240366639A1, “HETEROCYCLIC GLP-1 AGONISTS” (GASHERBRUM BIO, INC., priority 2021, published 2024)
